# According to ChEMBL document CHEMBL1201862, “PubChem BioAssay data set” (2004):
#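 Values below derive from 48-hour exposures of cells grown in 96-well plates, with endpoints linearly interpolated between the two concentrations bracketing the appropriate inhibition level. Here, GI50 denotes the concentration required for 50% inhibition of growth.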 Calls of active or inactive are those of the source. Rule as the data show it: active = GI50 up to about 1.1 µM and inactive = higher.
# How the values were obtained:
# Assay in all cases: NCI-60 cell line screen, 48 h
# 786-0 = test system: 786-0
# A498 = test system: A498
# A549 = test system: A549
# ACHN = test system: ACHN
# CAKI-1 = test system: CAKI-1
# CCRF-CEM = test system: CCRF-CEM
# COLO 205 = test system: COLO 205
# DU-145 = test system: DU-145
# EKVX = test system: EKVX
# HCC 2998 = test system: HCC 2998
# HCT-116 = test system: HCT-116
# HCT-15 = test system: HCT-15
# HL-60 = test system: HL-60
# HOP-62 = test system: HOP-62
# HOP-92 = test system: HOP-92
# HT-29 = test system: HT-29
# K562 = test system: K562
# KM12 = test system: KM12
# M14 = test system: M14
# MCF7 = test system: MCF7
# MDA-MB-231 = test system: MDA-MB-231
# MDA-MB-435 = test system: MDA-MB-435
# MDA-N = test system: MDA-N
# MOLT-4 = test system: MOLT-4
# Malme-3M = test system: Malme-3M
# NCI-H23 = test system: NCI-H23
# NCI-H460 = test system: NCI-H460
# NCI-H522 = test system: NCI-H522
# NCI/ADR-RES = test system: NCI/ADR-RES
# OVCAR-3 = test system: OVCAR-3
# OVCAR-5 = test system: OVCAR-5
# OVCAR-8 = test system: OVCAR-8
# PC-3 = test system: PC-3
# RPMI-8226 = test system: RPMI-8226
# RXF 393 = test system: RXF 393
# SF-268 = test system: SF-268
# SF-295 = test system: SF-295
# SF-539 = test system: SF-539
# SK-MEL-28 = test system: SK-MEL-28
# SK-MEL-2 = test system: SK-MEL-2
# SK-MEL-5 = test system: SK-MEL-5
# SN12C = test system: SN12C
# SNB-19 = test system: SNB-19
# SNB-75 = test system: SNB-75
# SR = test system: SR
# SW-620 = test system: SW-620
# T47D = test system: T47D
# U-251 = test system: U-251
# UACC-257 = test system: UACC-257
# UACC-62 = test system: UACC-62
# UO-31 = test system: UO-31
# BT-549 = test system: BT-549
# IGROV-1 = test system: IGROV-1
# LOX IMVI = test system: LOX IMVI
# NCI-H226 = test system: NCI-H226
# OVCAR-4 = test system: OVCAR-4
# SK-OV-3 = test system: SK-OV-3
structure (smiles),measurement,setting,value
COc1c2cc(C(C)(C)C)cc1Cc1cccc(c1O)Cc1cc(C(C)(C)C)cc(c1OC)Cc1cccc(c1O)Cc1cc(C(C)(C)C)cc(c1OC)Cc1cccc(c1O)C2,GI50,786-0,> 100 µM (inactive)
same,GI50,A498,> 100 µM (inactive)
same,GI50,A549,> 100 µM (inactive)
same,GI50,ACHN,> 100 µM (inactive)
same,GI50,CAKI-1,> 100 µM (inactive)
same,GI50,CCRF-CEM,> 10 µM (inactive)
same,GI50,COLO 205,> 100 µM (inactive)
same,GI50,DU-145,> 100 µM (inactive)
same,GI50,EKVX,> 100 µM (inactive)
same,GI50,HCC 2998,> 100 µM (inactive)
same,GI50,HCT-116,> 100 µM (inactive)
same,GI50,HCT-15,> 100 µM
same,GI50,HL-60,> 100 µM (inactive)
same,GI50,HOP-62,> 100 µM (inactive)
same,GI50,HOP-92,> 100 µM (inactive)
same,GI50,HT-29,> 100 µM (inactive)
same,GI50,K562,> 100 µM (inactive)
same,GI50,KM12,> 100 µM (inactive)
same,GI50,M14,55.6 µM (inactive)
same,GI50,MCF7,> 100 µM (inactive)
same,GI50,MDA-MB-231,> 100 µM (inactive)
same,GI50,MDA-MB-435,> 100 µM (inactive)
same,GI50,MDA-N,> 100 µM (inactive)
same,GI50,MOLT-4,> 100 µM (inactive)
same,GI50,Malme-3M,> 100 µM (inactive)
same,GI50,NCI-H23,> 10 µM (inactive)
same,GI50,NCI-H460,> 100 µM (inactive)
same,GI50,NCI-H522,> 100 µM (inactive)
same,GI50,NCI/ADR-RES,> 100 µM (inactive)
same,GI50,OVCAR-3,> 100 µM (inactive)
same,GI50,OVCAR-5,> 100 µM (inactive)
same,GI50,OVCAR-8,> 100 µM (inactive)
same,GI50,PC-3,> 100 µM (inactive)
same,GI50,RPMI-8226,> 100 µM (inactive)
same,GI50,RXF 393,> 100 µM (inactive)
same,GI50,SF-268,> 100 µM (inactive)
same,GI50,SF-295,> 100 µM (inactive)
same,GI50,SF-539,> 100 µM (inactive)
same,GI50,SK-MEL-28,> 100 µM (inactive)
same,GI50,SK-MEL-2,> 100 µM (inactive)
same,GI50,SK-MEL-5,> 100 µM (inactive)
same,GI50,SN12C,> 100 µM (inactive)
same,GI50,SNB-19,> 100 µM (inactive)
same,GI50,SNB-75,> 100 µM (inactive)
same,GI50,SR,> 100 µM (inactive)
same,GI50,SW-620,> 100 µM (inactive)
same,GI50,T47D,> 100 µM (inactive)
same,GI50,U-251,> 100 µM (inactive)
same,GI50,UACC-257,96.6 µM (inactive)
same,GI50,UACC-62,> 100 µM (inactive)
same,GI50,UO-31,> 100 µM (inactive)
O=C(Nc1ccc(I)cc1C(=O)NCCO)c1cccs1,GI50,A549,82.8 µM (inactive)
same,GI50,ACHN,> 100 µM (inactive)
same,GI50,BT-549,> 100 µM (inactive)
same,GI50,CAKI-1,> 100 µM (inactive)
same,GI50,CCRF-CEM,> 100 µM (inactive)
same,GI50,COLO 205,> 100 µM (inactive)
same,GI50,EKVX,> 100 µM (inactive)
same,GI50,HCC 2998,> 100 µM (inactive)
same,GI50,HCT-116,> 100 µM (inactive)
same,GI50,HCT-15,> 100 µM
same,GI50,HL-60,> 100 µM (inactive)
same,GI50,HOP-62,> 100 µM (inactive)
same,GI50,HT-29,> 100 µM (inactive)
same,GI50,IGROV-1,> 100 µM (inactive)
same,GI50,K562,> 100 µM (inactive)
same,GI50,KM12,> 100 µM (inactive)
same,GI50,LOX IMVI,> 100 µM (inactive)
same,GI50,M14,> 100 µM (inactive)
same,GI50,MCF7,> 100 µM (inactive)
same,GI50,MDA-MB-435,> 100 µM (inactive)
same,GI50,MOLT-4,> 100 µM (inactive)
same,GI50,NCI-H226,> 100 µM (inactive)
same,GI50,NCI-H23,> 100 µM (inactive)
same,GI50,NCI-H460,85.3 µM (inactive)
same,GI50,NCI-H522,> 100 µM (inactive)
same,GI50,NCI/ADR-RES,> 100 µM (inactive)
same,GI50,OVCAR-3,> 100 µM (inactive)
same,GI50,OVCAR-4,> 100 µM (inactive)
same,GI50,OVCAR-5,> 100 µM (inactive)
same,GI50,OVCAR-8,> 100 µM (inactive)
same,GI50,PC-3,> 100 µM (inactive)
same,GI50,RPMI-8226,53.5 µM (inactive)
same,GI50,RXF 393,> 100 µM (inactive)
same,GI50,SF-268,> 100 µM (inactive)
same,GI50,SF-295,> 100 µM (inactive)
same,GI50,SF-539,> 100 µM (inactive)
same,GI50,SK-MEL-28,> 100 µM (inactive)
same,GI50,SK-MEL-2,> 100 µM (inactive)
same,GI50,SK-MEL-5,> 100 µM (inactive)
same,GI50,SK-OV-3,> 100 µM (inactive)
same,GI50,SN12C,> 100 µM (inactive)
same,GI50,SNB-19,> 100 µM (inactive)
same,GI50,SR,49.7 µM (inactive)
same,GI50,SW-620,> 100 µM (inactive)
same,GI50,U-251,> 100 µM (inactive)
same,GI50,UACC-257,> 100 µM (inactive)
same,GI50,UACC-62,> 100 µM (inactive)
same,GI50,UO-31,> 100 µM (inactive)
O=C(c1ccc(Cl)cc1Cl)N1CCN(C(=O)c2ccc(Cl)cc2Cl)C1=S,GI50,RPMI-8226,12.9 µM (inactive)
